Active and inactive are the calls of the source.
How the values were obtained:
[1] = molecular target: T1, Peroxisome proliferator-activated receptor gamma (Homo sapiens, UniProt P37231); experiment: PPARg partial agonists, dose response, cell-based, luminescence, assay provider (AID 504447); type: functional
T1 sequence (P37231 whole entry): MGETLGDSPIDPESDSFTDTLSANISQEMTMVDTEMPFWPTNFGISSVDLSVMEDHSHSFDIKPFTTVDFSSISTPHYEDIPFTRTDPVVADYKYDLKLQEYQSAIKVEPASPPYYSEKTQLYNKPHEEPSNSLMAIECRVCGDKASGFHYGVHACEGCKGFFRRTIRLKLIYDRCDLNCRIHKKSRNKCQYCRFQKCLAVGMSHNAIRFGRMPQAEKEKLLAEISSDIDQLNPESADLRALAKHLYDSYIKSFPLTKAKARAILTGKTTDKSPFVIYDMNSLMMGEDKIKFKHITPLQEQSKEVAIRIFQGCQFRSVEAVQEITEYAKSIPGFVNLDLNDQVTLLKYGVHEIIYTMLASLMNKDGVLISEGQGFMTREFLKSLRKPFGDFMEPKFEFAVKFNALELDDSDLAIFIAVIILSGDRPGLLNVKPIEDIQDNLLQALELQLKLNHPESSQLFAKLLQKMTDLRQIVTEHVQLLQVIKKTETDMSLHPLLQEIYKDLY

[2] = molecular target: Peroxisome proliferator-activated receptor gamma/Nuclear receptor coactivator 2 (Homo sapiens, UniProt P37231); experiment: (§1) TR-FRET dose response biochemical High Throughput Screening assay for agonists of the steroid receptor coactivator 2 (SRC-2) recruitment by the peroxisome proliferator-activated receptor gamma (PPAR gamma): non-selective agonists. [Related pubchem assays: 1297, 1032 ]; type: functional
[3] = molecular target: Peroxisome proliferator-activated receptor gamma/Nuclear receptor coactivator 1 (Homo sapiens, UniProt P37231); experiment: as §1, with “1 (SRC-1)” for “2 (SRC-2)”, “assays (depositor defined):AID1300, AID1808, AID504735, AID631]” for “assays: 1297, 1032 ]”; type: protein assay
[4] = molecular target: Peroxisome proliferator-activated receptor gamma/Nuclear receptor coactivator 3 (Homo sapiens, UniProt P37231); experiment: as §1, with “3 (SRC-3)” for “2 (SRC-2)”, “1301 (Confirmation screen.), 1048 (Primary screen.)]” for “1297, 1032 ]”; type: functional
Peroxisome proliferator-activated receptor gamma/Nuclear receptor coactivator 3, sequence (Q9Y6Q9 whole entry, one chain of several, further chain): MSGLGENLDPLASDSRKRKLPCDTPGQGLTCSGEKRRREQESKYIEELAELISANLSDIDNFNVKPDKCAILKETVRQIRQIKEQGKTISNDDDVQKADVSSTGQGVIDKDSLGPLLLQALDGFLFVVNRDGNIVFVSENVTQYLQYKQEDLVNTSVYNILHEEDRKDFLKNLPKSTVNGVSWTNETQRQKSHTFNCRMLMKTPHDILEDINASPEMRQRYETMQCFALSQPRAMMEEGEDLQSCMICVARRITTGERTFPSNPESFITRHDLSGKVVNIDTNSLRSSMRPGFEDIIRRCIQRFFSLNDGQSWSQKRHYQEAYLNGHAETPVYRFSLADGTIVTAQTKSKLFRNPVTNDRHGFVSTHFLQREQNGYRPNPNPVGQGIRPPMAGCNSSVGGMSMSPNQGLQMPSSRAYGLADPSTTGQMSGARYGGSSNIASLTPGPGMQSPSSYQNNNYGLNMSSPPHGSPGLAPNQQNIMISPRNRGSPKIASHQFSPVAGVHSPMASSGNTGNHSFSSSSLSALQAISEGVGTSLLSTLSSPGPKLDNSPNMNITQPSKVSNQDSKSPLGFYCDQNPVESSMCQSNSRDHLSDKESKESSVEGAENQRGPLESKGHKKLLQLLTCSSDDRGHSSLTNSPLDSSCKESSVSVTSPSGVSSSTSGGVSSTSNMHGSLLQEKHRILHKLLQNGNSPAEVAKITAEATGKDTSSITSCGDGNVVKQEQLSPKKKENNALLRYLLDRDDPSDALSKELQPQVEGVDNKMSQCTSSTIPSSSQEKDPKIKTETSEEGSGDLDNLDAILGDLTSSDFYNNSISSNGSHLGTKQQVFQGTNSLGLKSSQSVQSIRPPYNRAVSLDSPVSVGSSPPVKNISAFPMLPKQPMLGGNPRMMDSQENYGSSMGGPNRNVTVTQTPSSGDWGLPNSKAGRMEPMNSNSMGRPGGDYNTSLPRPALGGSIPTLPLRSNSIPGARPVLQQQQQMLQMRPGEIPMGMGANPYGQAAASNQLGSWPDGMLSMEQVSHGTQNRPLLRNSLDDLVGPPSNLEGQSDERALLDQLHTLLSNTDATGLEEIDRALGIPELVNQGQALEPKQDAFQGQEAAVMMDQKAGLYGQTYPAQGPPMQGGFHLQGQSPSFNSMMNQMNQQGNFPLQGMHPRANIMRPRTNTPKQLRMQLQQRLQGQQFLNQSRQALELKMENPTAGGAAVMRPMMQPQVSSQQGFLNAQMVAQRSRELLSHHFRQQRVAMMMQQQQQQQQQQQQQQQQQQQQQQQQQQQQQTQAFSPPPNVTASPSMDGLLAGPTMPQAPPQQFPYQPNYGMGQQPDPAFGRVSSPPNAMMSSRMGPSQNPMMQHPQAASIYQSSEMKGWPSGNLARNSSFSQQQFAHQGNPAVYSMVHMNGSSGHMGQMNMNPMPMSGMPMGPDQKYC

Streptococcus = experiment: Group A Streptococcus viability loss, dose response, counter-screen for streptokinase expression inhibitor project, luminescence, BacTiterGlo (AID 1915); type: functional, organism-based;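 note: potency for reduction of bacterial viability or growth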
[5] = system: Streptococcus sp. 'group A'; experiment: growth inhibition of control SK(-) GAS strain, dose response, counter-screen for streptokinase expression inhibitor project, luminescence, kanamycin, BacTiterGlo, confirmation (AID 1900); type: functional, organism-based
Ion channel NompC = Ion channel NompC (Danio rerio, UniProt Q7T1G6); experiment: Dose response cell-based high-throughput screening assay for agonists of the transient receptor potential channel N1 (TRPN1). [Related pubchem assays (depositor defined):AID1424, AID1448]; type: functional
Ion channel NompC, sequence (Q7T1G6 whole entry): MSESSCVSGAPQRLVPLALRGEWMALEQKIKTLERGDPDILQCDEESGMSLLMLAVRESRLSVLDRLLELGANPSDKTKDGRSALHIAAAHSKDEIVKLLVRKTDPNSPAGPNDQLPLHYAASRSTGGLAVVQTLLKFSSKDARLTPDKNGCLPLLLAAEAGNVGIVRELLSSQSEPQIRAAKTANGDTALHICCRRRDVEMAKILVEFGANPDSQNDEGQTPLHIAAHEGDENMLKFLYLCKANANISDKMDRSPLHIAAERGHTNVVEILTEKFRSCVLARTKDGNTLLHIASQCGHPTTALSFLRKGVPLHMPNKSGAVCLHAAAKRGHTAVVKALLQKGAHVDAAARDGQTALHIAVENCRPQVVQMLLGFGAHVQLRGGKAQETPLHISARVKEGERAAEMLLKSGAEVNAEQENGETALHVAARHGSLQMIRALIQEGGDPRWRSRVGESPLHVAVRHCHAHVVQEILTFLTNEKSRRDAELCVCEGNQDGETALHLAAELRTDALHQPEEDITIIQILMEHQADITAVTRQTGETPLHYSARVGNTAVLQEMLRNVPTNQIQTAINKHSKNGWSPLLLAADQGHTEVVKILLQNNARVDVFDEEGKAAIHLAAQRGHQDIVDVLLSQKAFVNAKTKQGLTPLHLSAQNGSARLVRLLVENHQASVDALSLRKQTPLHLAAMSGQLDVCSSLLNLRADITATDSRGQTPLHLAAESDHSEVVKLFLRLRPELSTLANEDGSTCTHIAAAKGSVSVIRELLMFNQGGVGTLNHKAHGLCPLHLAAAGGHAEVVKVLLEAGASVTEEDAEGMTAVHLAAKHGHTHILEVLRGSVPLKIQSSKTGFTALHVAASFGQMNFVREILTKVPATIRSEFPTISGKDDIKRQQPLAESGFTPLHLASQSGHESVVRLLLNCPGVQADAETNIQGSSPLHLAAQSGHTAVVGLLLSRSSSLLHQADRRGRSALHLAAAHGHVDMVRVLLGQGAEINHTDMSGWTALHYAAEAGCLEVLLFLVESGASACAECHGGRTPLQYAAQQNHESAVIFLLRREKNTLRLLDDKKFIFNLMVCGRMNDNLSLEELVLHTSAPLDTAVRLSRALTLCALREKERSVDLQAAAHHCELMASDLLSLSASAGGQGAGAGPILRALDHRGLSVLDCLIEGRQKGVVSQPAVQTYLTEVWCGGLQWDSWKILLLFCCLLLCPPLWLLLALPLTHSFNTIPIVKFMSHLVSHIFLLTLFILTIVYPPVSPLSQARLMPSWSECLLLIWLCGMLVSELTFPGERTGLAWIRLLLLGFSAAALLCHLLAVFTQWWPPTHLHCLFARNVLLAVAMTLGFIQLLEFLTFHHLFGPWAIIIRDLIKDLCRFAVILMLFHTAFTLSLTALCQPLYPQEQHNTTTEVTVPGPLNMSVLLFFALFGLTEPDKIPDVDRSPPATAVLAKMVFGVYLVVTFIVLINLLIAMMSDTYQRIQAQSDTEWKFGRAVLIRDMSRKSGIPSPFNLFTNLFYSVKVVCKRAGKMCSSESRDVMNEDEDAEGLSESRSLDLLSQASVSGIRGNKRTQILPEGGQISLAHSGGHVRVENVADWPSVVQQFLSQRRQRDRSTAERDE

Mucolipin-3 = Mucolipin-3 (Homo sapiens, UniProt Q8TDD5); experiment: Fluorescence counterscreen assay for […] agonists: dose response cell-based high-throughput screening assay to identify agonists of the transient receptor potential channel ML3 (TRPML3). [Related pubchem assays: 1424, 1448 ]; type: functional
Mucolipin-3, sequence (Q8TDD5 whole entry): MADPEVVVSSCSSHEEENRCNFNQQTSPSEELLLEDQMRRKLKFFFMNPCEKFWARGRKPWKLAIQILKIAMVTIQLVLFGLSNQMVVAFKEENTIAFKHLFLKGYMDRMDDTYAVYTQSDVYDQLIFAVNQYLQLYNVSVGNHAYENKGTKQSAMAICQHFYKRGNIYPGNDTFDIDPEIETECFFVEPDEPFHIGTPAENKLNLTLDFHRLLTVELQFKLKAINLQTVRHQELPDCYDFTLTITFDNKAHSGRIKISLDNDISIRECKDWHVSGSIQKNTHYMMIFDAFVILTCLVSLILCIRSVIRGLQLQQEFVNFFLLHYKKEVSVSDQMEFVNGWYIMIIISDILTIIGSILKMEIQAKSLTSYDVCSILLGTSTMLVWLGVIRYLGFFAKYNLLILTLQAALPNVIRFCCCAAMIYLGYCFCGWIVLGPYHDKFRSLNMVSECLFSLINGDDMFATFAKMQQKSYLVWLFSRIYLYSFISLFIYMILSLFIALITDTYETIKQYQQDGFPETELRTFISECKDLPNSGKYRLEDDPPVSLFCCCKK

[6] = molecular target: T2, Short transient receptor potential channel 4 (Mus musculus, UniProt Q9QUQ5); experiment: mouse TRPC4 channel activators, dose response, cell-based, HEK293 TRPC4/mu-opioid, Fluo-4 calcium (AID 434937); type: functional
T2 sequence (Q9QUQ5 whole entry): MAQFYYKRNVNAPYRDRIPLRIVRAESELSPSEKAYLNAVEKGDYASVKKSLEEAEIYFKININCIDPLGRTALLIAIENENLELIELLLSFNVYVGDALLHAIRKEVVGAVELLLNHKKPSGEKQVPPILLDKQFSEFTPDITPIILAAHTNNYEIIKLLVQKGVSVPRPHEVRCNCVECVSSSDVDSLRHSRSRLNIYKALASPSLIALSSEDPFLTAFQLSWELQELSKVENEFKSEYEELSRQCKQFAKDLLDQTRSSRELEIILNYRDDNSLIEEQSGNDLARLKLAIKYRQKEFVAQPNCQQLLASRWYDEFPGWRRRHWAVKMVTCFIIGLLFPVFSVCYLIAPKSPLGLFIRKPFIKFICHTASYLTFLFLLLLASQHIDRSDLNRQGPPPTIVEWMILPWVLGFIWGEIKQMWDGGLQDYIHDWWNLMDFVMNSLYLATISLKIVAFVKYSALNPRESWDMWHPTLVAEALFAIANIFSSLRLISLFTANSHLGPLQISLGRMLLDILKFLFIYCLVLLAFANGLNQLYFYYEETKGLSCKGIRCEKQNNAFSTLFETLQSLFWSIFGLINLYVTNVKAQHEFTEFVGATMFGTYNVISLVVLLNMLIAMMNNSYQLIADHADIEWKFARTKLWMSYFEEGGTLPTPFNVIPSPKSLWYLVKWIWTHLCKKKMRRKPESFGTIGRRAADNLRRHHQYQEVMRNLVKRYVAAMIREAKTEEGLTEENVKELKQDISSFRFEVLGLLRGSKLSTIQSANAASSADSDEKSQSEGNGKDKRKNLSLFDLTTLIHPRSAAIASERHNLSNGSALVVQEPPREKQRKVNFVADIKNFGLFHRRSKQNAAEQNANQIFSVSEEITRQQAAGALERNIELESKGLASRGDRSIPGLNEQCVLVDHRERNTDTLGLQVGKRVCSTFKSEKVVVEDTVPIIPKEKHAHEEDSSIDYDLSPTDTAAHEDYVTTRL

Hexokinase-1 = molecular target: T3, Hexokinase-1 (Homo sapiens, UniProt P19367); experiment: hexokinase 1 activators, dose response, selectivity assay for HKDC1 activator project, biochemical (AID 504762); type: functional
T3 sequence (P19367 whole entry): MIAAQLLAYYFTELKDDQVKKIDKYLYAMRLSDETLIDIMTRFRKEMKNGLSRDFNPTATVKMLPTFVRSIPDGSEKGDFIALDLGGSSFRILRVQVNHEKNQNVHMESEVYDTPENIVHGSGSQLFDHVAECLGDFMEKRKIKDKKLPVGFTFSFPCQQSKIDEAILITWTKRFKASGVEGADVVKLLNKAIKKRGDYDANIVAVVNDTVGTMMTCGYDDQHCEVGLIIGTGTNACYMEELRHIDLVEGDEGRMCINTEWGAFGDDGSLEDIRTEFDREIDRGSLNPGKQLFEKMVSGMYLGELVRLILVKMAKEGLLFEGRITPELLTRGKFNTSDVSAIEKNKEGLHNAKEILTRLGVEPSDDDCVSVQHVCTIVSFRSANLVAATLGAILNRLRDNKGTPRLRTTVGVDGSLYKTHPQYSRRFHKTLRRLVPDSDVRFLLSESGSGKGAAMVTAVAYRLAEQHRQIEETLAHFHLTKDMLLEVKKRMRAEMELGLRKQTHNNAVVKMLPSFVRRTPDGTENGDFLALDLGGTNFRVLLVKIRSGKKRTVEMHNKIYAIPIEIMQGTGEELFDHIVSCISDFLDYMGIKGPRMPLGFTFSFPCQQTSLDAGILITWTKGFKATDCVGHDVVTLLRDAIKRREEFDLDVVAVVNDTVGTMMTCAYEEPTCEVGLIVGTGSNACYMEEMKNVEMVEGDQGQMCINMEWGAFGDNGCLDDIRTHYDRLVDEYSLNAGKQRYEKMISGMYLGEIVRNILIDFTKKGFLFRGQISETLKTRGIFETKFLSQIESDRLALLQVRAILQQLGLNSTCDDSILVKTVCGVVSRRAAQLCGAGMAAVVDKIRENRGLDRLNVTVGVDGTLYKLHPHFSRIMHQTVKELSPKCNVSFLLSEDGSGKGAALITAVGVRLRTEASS

Hexokinase HKDC1 = molecular target: T4, Hexokinase HKDC1 (Homo sapiens, UniProt Q2TB90); experiment: HKDC1 hexokinase activators, dose response, biochemical, W721R variant (AID 504730); type: functional
T4 sequence (Q2TB90 whole entry): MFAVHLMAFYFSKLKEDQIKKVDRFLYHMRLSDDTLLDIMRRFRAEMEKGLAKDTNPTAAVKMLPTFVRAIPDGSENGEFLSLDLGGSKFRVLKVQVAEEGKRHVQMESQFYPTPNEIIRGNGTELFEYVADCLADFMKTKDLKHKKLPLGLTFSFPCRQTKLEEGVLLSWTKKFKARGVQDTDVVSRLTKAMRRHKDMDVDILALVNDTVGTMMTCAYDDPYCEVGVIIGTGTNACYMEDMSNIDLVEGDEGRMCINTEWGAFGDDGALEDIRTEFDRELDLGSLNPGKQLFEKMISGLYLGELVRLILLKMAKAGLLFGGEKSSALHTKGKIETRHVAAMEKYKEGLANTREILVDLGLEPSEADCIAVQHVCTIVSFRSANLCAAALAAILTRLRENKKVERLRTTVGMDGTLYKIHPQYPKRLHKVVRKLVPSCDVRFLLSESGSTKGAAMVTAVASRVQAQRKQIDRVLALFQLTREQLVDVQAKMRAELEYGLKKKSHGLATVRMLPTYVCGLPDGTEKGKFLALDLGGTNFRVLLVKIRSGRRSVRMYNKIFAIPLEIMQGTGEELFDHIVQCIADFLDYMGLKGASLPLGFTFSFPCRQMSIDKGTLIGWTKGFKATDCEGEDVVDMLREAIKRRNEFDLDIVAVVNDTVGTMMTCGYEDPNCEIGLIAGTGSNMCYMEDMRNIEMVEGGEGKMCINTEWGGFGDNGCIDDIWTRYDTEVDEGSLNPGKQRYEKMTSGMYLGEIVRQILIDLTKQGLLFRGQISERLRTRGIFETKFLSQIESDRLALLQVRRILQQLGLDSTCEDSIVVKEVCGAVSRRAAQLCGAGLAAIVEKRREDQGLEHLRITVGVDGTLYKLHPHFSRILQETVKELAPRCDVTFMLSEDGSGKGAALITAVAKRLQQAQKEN

[7] = molecular target: T5, Kappa-type opioid receptor (Homo sapiens, UniProt P41145); type: functional
T5 sequence (P41145 whole entry): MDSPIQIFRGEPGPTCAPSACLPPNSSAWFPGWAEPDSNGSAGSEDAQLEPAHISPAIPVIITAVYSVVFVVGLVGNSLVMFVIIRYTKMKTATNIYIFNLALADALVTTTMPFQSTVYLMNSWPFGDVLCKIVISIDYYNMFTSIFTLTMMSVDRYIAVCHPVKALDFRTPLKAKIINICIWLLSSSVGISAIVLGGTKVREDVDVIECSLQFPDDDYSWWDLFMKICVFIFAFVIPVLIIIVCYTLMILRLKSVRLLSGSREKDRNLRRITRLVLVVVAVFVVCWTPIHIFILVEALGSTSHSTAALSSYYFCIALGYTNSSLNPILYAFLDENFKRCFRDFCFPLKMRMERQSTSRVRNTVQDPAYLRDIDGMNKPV

[8] = molecular target: T6, Corticotropin-releasing factor receptor 2/Corticotropin-releasing factor-binding protein (Homo sapiens, UniProt P24387+Q13324); experiment: activators of CRF receptor 2 with binding protein – uHTS hits, confirmation (AID 602473); type: functional; settings: read-out: EC50_Mean
T6 sequence (Q13324 whole entry): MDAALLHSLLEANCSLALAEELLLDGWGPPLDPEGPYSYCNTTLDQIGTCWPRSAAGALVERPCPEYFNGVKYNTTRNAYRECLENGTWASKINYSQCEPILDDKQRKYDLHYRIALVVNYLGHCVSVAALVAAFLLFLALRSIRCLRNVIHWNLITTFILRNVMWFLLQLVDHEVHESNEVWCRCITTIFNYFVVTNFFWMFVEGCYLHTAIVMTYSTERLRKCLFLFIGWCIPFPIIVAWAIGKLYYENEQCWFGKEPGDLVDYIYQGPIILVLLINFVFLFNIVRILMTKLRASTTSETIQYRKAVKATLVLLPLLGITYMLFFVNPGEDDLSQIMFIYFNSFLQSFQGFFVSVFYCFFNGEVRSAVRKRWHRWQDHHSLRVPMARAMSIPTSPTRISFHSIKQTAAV
T6 sequence (P24387 whole entry): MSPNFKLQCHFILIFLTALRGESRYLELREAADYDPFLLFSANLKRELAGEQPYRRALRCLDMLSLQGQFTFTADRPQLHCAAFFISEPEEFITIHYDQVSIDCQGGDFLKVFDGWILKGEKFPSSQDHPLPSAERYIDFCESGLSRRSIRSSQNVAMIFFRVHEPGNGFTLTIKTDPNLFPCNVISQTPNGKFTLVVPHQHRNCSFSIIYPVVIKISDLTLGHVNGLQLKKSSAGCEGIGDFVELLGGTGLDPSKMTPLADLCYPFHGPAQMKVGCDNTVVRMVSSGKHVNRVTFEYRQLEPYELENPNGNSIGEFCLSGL

[9] = molecular target: T7, Delta-type opioid receptor (Homo sapiens, UniProt P41143); experiment: HTS Image-Based Screen for Agonists of the DOR Receptor. [Related pubchem assays (depositor defined):AID1777, AID1786, AID2133]; type: functional
T7 sequence (P41143 whole entry): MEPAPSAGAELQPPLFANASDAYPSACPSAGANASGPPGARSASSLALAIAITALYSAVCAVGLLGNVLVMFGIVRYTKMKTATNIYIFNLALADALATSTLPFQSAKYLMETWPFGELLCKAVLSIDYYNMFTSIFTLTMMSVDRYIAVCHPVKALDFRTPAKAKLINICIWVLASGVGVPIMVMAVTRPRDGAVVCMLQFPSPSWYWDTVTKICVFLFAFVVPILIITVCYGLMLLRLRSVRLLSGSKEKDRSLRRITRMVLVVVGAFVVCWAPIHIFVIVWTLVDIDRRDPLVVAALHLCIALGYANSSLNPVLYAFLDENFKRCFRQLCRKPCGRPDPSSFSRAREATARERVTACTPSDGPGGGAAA

Mu-type opioid receptor = Mu-type opioid receptor (Homo sapiens, UniProt P35372); experiment: HTS Image-Based Screen for Agonists of the MOR Receptor. [Related pubchem assays (depositor defined):AID1777, AID1785, AID1786, AID2133]; type: functional;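 note: imaging of beta-arrestin GFP recruitment into spots after receptor activation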
Mu-type opioid receptor, sequence (P35372 whole entry): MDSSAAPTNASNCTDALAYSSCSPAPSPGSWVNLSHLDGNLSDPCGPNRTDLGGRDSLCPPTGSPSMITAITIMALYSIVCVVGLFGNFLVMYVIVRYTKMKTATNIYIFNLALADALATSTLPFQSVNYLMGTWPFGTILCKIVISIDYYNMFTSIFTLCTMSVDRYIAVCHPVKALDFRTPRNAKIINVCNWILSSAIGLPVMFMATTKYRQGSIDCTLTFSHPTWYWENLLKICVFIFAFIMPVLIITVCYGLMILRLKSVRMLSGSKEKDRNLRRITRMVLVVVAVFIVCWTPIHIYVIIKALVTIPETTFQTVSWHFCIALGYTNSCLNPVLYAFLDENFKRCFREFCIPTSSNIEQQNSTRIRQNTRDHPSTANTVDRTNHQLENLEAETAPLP

[10] = molecular target: T7, Delta-type opioid receptor; experiment: HTS Image-Based Screen for Antagonists of the DOR Receptor. [Related pubchem assays (depositor defined):AID1777, AID1785, AID1786, AID2133]; type: functional
[11] = molecular target: T5, Kappa-type opioid receptor; type: functional; remark: listed apart in the source
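Throughout, for IC50: U2OS cells expressing DOR stimulated with 100 nM SNC80 agonist.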

`COc1ccc2c(c1)c(=O)c(C(=O)c1ccc(F)cc1)cn2CC(=O)Nc1ccc(F)cc1` was tested. Which EC50 [1] did it give?
The EC50 was 1.8 µM (active).

Which EC50 [2] does the source give for `COC(=O)c1cc(Cl)c(NC(=O)c2cc3ccccc3o2)cc1OC` here?
The EC50 was 12.3 µM (not active).

And the EC50 [3]?
Its EC50 is 7.17 µM (active).

What about the EC50 [4] of the same compound?
The EC50 was 63 µM (not active).

With `Cc1onc(-c2ccccc2)c1C(=O)NNC(=S)NC(=O)c1ccc(Br)cc1` as the compound, how does the EC50 (Streptococcus) read?
The EC50 was 1.52 µM (active).

And the EC50 [5]?
The EC50 was 472 nM (active).

And the EC50 (Ion channel NompC)?
Its EC50 is 604 nM (active).

What about the EC50 (Mucolipin-3) of the same compound?
Its EC50 is 1.03 µM (active).

And the EC50 [6]?
The EC50 was 1.88 µM (active).

What about the EC50 (Hexokinase-1) of the same compound?
Its EC50 is > 80 µM (inactive).

And the EC50 (Hexokinase HKDC1)?
The EC50 was 6.58 µM (active).

`O=C(c1ccc([N+](=O)[O-])cc1)N(Cc1ccc(Cl)cc1)N1C(=O)CCCC1=O` was tested. Which EC50 [7] did it give?
Its EC50 is greater than 35 µM.

And the EC50 [8]?
Its EC50 is 709 nM (active).

And the EC50 [9]?
The EC50 was > 32 µM (inactive).

What about the EC50 (Mu-type opioid receptor) of the same compound?
Its EC50 is > 32 µM (inactive).

And the IC50 [10]?
The IC50 was > 32 µM (inactive).

And the EC50 [11]?
Its EC50 is 5.66 µM.

Source: ChEMBL document CHEMBL1201862, “PubChem BioAssay data set” (2004)
